Consider 3 molecules from US20240277781A1, “Compositions Comprising Microbes and Methods of Use and Making Thereof” (Pendulum Therapeutics, Inc., priority 2021, published 2024).

For data set [1] the following is noted: taken orally; cited from earlier work.
The test system of data set [2] is formulation strains (AMUC, BINF, CBEI, CBUT, EHAL). The data set is classed as cell-based.

Consider `CCC1=C(C)CN(C(=O)NCCc2ccc(S(=O)(=O)NC(=O)N[C@H]3CC[C@H](C)CC3)cc2)C1=O` [glimepiride], for which, in data set [1], the fecal elimination percentage is recorded as 40% and the plasma half-life was 5 to 8 h. Also, the “growth inhibition of formulation strains (yield decrease, lag increase)” value in data set [2] is given as “largest inhibitory effect overall”.
For the molecule `Cc1cnc(C(=O)NCCc2ccc(S(=O)(=O)NC(=O)NC3CCCCC3)cc2)cn1` [glipizide], the fecal elimination percentage in data set [1] is 10%.
As for `COc1ccc(Cl)cc1C(=O)NCCc1ccc(S(=O)(=O)NC(=O)NC2CCCCC2)cc1` [glyburide], in data set [1], the fecal elimination percentage is on record as 50% and the plasma half-life is 4 to 10 h. Moreover, the “growth inhibition of formulation strains (yield decrease, lag increase)” value in data set [2] was “largest inhibitory effect overall”.
